Experimental data reported in patent US9127040B2, “Regulation of sodium channels by PLUNC proteins” (The University of North Carolina at Chapel Hill, priority 2011, dated 2015).
Ends that are not written are not given here.

Assays:
γENaC = target: T1, γENaC (Homo sapiens, UniProt P51170); test: Biotinylated peptide pull-down of ENaC subunits from HEK293T cells; format: binding; conditions: subunits individually expressed
T1 construct: expressed in transfected cells; host or cells: HEK293T cells (lysate)
T1 sequence (P51170 whole entry): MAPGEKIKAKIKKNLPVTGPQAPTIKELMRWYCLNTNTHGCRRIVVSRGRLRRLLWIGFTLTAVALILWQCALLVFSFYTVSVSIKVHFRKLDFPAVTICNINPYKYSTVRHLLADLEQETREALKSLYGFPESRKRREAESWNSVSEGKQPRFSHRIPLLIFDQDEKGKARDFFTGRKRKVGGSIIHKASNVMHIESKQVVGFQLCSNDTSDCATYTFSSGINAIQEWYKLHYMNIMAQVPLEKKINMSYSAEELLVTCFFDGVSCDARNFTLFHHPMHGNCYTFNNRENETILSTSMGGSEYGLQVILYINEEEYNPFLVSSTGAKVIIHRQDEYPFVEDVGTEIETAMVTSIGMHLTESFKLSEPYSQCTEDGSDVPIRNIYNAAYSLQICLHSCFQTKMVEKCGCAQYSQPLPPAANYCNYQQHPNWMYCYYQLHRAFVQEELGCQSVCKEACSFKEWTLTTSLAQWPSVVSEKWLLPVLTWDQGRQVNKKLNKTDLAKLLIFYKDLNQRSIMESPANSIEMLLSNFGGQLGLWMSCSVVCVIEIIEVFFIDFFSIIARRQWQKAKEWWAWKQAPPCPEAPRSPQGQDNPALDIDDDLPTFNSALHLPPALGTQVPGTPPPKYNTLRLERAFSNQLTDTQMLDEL
Method: HEK293T cells were transfected with double-tagged human ENaC subunits with HA and V5 epitopes at the N- and C-termini, respectively, in combination with wild-type untagged subunit cDNA. When all three ENaC subunits were expressed, 0.5 μg of each subunit were transfected per well. When expressed individually, 0.75 μg of the subunit were transfected per well. The transfected cells were lysed 24 h later using NP-40 buffer with 1× complete EDTA-free protease inhibitor (Roche, Basel, Switzerland). The lysate was centrifuged at 16,300×g for 15 minutes at 4° C. and the supernatant collected. Protein concentration was determined using the BCA assay and 500 μg of protein plus 0.25 mg peptide and 100 μL of neutravidin were added to a spin column and rotated end-over-end at 4° C. for 24 h (all ThermoFisher Scientific, Rockford, Ill., USA). Flow-through was collected by centrifugation at 1000×g for 30 s. […] The membrane was probed using 1:1000 anti-V5 antibody (Invitrogen, Carlsbad, Calif., USA) overnight at 4° C. in 3% fish gelatin in TBS-T. The blot was then incubated for 1 h at room temperature with an ECL sheep anti-mouse IgG secondary antibody and detected by ECL reagent (ThermoFisher Scientific, Waltham, Mass., USA) or by incubation with a goat anti-mouse IRDye secondary antibody and analyzed by an Odyssey infrared imaging system (LI-COR Biosciences, Lincoln, Nebr., USA).

βENaC-eGFP = target: T2, βENaC-eGFP (Homo sapiens, UniProt P51168); test: Confocal imaging of βENaC-eGFP internalization in HEK cells; format: cell-based; conditions: 1 h after 100 μM S18
T2 construct: expressed in transfected cells; host or cells: HEK cells
T2 sequence (P51168 whole entry): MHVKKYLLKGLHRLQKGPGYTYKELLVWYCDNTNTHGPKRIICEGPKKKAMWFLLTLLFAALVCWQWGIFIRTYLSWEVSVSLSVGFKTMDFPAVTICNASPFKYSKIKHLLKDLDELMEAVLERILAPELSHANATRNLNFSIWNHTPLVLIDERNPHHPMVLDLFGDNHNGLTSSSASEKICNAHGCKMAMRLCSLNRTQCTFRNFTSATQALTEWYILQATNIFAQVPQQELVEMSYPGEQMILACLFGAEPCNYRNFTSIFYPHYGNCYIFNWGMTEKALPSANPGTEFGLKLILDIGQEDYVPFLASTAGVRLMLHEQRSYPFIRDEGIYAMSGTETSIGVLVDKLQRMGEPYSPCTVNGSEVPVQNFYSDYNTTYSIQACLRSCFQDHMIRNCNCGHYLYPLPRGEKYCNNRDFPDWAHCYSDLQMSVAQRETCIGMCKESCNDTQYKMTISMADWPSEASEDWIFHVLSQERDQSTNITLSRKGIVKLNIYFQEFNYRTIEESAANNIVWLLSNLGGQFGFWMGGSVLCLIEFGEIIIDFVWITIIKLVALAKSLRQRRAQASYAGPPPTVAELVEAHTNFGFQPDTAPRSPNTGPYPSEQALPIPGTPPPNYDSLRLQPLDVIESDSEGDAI
T2 sequence (P37088 whole entry partner): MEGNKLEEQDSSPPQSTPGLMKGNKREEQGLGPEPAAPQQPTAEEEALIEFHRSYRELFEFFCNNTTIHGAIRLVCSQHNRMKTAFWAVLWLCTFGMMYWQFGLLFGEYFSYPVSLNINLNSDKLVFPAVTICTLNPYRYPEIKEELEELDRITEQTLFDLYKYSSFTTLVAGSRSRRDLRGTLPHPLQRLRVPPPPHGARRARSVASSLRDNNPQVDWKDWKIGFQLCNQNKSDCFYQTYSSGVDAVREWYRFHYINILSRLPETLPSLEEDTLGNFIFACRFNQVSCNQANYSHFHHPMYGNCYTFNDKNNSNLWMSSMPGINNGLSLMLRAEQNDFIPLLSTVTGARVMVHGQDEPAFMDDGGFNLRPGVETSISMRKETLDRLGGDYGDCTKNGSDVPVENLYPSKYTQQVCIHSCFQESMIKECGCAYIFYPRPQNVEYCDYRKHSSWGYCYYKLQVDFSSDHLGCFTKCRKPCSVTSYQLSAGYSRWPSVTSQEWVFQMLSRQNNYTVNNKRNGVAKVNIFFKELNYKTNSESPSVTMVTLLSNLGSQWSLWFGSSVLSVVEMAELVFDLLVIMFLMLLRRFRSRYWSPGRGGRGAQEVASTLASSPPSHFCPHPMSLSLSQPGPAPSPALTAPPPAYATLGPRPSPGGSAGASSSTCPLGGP
T2 sequence (P51170 whole entry partner): as the sequence (P51170 whole entry) above
Description: Ai, cartoon of αENaC-eGFP and βENaC-mCherry under basal conditions (γENaC not shown). Aii We hypothesize that S18 binding to the extracellular loop of βENaC (1) induces a conformational change in ENaC which is reflected as altered intracellular FRET (2). This change may facilitate NEDD4-2-induced ubiquitination (3), leading to internalization of αβγENaC (4). […] In contrast, exposure to aprotinin had no effect. All n=8-10. C, Typical confocal images of HEK cells expressing αγENaC and βENaC-eGFP before and 1 h after 100 μM S18. Cell outlines are traced in white.
Since ENaC is regulated by NEDD4-2 binding to its C-termini, which leads to ubiquitination of its N-termini and internalization, we propose that S18 causes a conformational change in ENaC, leading to increased ubiquitination followed by internalization (FIG. 21A). As a first step towards understanding the mechanism of action of SPLUNC1, we performed FRET on fluorescently tagged ENaCs. […] Furthermore, βENaC-eGFP internalized upon S18 binding (FIG. 21C), consistent with our surface biotinylation data from oocytes.

GGLPVPLDQTLPLNVNPA [S18]
binding to γENaC (pull-down) (γENaC): without any detectable binding
βENaC-eGFP internalization (βENaC-eGFP): internalized
